20 compounds from patent US9593110B2, “Neprilysin inhibitors” (Theravence Biopharma R&D IP, LLC, priority 2014, dated 2017) can be followed below.

A value given as a limit tells only on which side of the number the result lay.

The target of one series is human NEP (Homo sapiens (Human), UniProt P08473). Nature of the series: In vitro enzyme inhibition assay at human NEP. The note with it: recombinant human NEP, fluorogenic peptide substrate, 37° C.; for Ki: pKi.
The nature of series [1]: Rat PO cassette assay (oral bioavailability). Format: in vivo, Sprague-Dawley rats. As to conditions: male, Sprague-Dawley, plasma, single oral gavage vs intravenous dose, 0.5 mg/kg. The source says: Oral bioavailability, or % F, is a measure of the percentage of a drug in an oral dose that actually reaches the systemic circulation. Compound losses can occur due to incomplete formulation dissolution, incomplete absorption due to compound insolubility or instability along the GI, or metabolism in the gut or across the gut wall. The fraction of the dose which reaches the hepatic portal vein must also then pass through the liver before reaching the systemic circulation. Compound metabolism, or “first-pass extraction,” can occur during this initial passage through the liver, and this is an additional potential source of compound loss. Oral bioavailability is calculated as the dose-normalized ratio of drug exposure after an oral dose to that after an intravenous dose, wherein the entire dose is delivered directly to the systemic circulation.
Each cassette study begins with 10 mM DMSO stock solutions of up to 5 different compounds. Typically, compounds are selected such no two compounds dosed in the same cassette have a molecular weight within 5 Da of each other. This simplifies subsequent bioanalysis. Appropriate volumes of each DMSO stock are added into a volume of vehicle (5% sodium bicarbonate, 5% dextrose in H2O) such that the final concentration of each compound is 0.25 mg/mL. Intravenous dosing solutions are sterile-filtered (0.2 μm) prior to dosing.
Pre-cannulated male Sprague-Dawley rats (3 per cassette per route) between 8 and 10 weeks of age were obtained from Harlan Laboratories (Indianapolis, Ind.). Rats received either a single oral gavage or a single intravenous (via lateral tail vein) dose (2 mL/kg) of the dosing solution. The final dose was 0.5 mg/kg. Serial blood samples were harvested via jugular vein cannula at 3 minutes, 15 minutes, 30 minutes, 1 hours, 2 hours, 4 hours, 6 hours, and 24 hours post-dose. Sampling was performed either manually or using automated blood samplers. Samples were collected into microtainer tubes containing EDTA as the anticoagulant and are processed to plasma by refrigerated centrifugation.
Plasma samples were extracted with 3 volumes of MeCN containing a suitable internal standard. Extracts were reconstituted into 3 volumes of water containing 1% formic acid, and analyzed via HPLC-coupled MS/MS. Plasma concentration-time data were analyzed using the Phoenix software (Pharsight Corp., St. Louis, Mo.) to calculate pharmacokinetic parameters.
Compounds of the invention of particular interest were those having a % F>10%, when tested in this assay.

Chain of human NEP (P08473 52-750): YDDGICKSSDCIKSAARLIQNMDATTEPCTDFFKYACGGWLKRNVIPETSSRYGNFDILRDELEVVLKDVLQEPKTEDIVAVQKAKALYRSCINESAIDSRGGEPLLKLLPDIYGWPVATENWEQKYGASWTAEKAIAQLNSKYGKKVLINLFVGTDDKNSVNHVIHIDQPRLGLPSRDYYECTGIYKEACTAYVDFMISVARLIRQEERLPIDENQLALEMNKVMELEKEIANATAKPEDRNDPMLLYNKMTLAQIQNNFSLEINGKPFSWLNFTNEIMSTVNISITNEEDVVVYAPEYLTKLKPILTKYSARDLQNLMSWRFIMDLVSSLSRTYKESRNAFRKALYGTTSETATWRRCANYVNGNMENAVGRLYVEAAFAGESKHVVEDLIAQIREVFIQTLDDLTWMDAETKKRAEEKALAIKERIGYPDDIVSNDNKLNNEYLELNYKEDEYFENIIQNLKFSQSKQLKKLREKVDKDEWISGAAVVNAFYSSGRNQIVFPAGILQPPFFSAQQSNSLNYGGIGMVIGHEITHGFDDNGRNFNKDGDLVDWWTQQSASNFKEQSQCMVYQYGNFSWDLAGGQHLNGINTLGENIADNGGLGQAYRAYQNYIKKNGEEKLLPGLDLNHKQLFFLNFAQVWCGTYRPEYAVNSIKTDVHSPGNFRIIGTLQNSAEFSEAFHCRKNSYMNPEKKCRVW

For the compound `Cc1cc(C(=O)NC(Cc2ccc(-c3cc(Cl)ccc3F)cc2)C[C@@H](CC#N)C(=O)O)sn1` (single isomer, unassigned) [Example 52-1], at human NEP, the Ki is at most 1 nM. This compound also yielded a bioavailability in series [1] of over 10%.
Take `CCc1cc(C(=O)N[C@H](Cc2ccc(-c3cc(Cl)ccc3F)cc2)C[C@@H](COC)C(=O)O)on1` [Example 1, (2S,4S)-5-(5′-Chloro-2′-fluorobiphenyl-4-yl)-4-[(3-ethylisoxazole-5-carbonyl)amino]-2-methoxymethylpentanoic Acid]: on human NEP, the Ki was at most 1 nM. In series [1], this compound came in with a bioavailability of over 10%.
Turning to `COC[C@H](C[C@@H](Cc1ccc(-c2cc(Cl)ccc2F)cc1)NC(=O)c1c[nH]nn1)C(=O)O` [Example 2-1, (2S,4S)-5-(5′-chloro-2′-fluorobiphenyl-4-yl)-2-methoxymethyl-4-[(1H-[1,2,3]triazole-4-carbonyl)amino]pentanoic acid], the pKi entry on human NEP is on record as “≧9.0”. Further, the bioavailability in series [1] is over 10%.
For `COC[C@H](C[C@@H](Cc1ccc(-c2cc(Cl)ccc2F)cc1)NC(=O)c1n[nH]c(C(F)(F)F)n1)C(=O)O` [Example 2-2, (2S,4S)-5-(5′-Chloro-2′-fluorobiphenyl-4-yl)-2-methoxymethyl-4-[(5-trifluoromethyl-1H-[1,2,4]triazole-3-carbonyl)amino]pentanoic acid] the same measures were “≧9.0” and over 10%.
Taken in the same sequence, the figures for `COC[C@H](C[C@@H](Cc1ccc(-c2cc(Cl)ccc2F)cc1)NC(=O)c1cc(OC)no1)C(=O)O` [Example 2-6, (2S,4S)-5-(5′-Chloro-2′-fluorobiphenyl-4-yl)-4-[(3-methoxyisoxazole-5-carbonyl)-amino]-2-methoxymethylpentanoic acid] were “≧9.0” and over 10%.
On to `COC[C@H](C[C@@H](Cc1ccc(-c2cc(Cl)ccc2F)cc1)NC(=O)c1cocn1)C(=O)O` [Example 2-8, (2S,4S)-5-(5′-Chloro-2′-fluorobiphenyl-4-yl)-2-methoxymethyl-4-[(oxazole-4-carbonyl)amino]pentanoic acid], for which the pKi entry on human NEP is recorded as “≧9.0”. Moreover, the bioavailability in series [1] was over 10%.
For `COC[C@H](C[C@@H](Cc1ccc(-c2cc(Cl)ccc2F)cc1)NC(=O)c1coc(C2CC2)n1)C(=O)O` [Example 2-9, (2S,4S)-5-(5′-Chloro-2′-fluorobiphenyl-4-yl)-4-[(2-cyclopropyloxazole-4-carbonyl)amino]-2-methoxymethylpentanoic acid], the pKi result at human NEP is listed as “≧9.0”. In series [1], this compound displayed a bioavailability of over 10%.
Taken in the same sequence, the figures for `COC[C@H](C[C@@H](Cc1ccc(-c2cc(Cl)ccc2F)cc1)NC(=O)c1ncccn1)C(=O)O` [Example 2-13, (2S,4S)-5-(5′-Chloro-2′-fluorobiphenyl-4-yl)-2-methoxymethyl-4-[(pyrimidine-2-carbonyl)amino]pentanoic acid] were “≧9.0” and over 10%.
On to `COC[C@H](C[C@@H](Cc1ccc(-c2cc(Cl)ccc2F)cc1)NC(=O)c1ncc(C)o1)C(=O)O` [Example 2-15, (2S,4S)-5-(5′-Chloro-2′-fluorobiphenyl-4-yl)-2-methoxymethyl-4-[(5-methyloxazole-2-carbonyl)amino]pentanoic acid], for which the pKi result on human NEP is “≧9.0”. The compound further had a bioavailability in series [1] of over 10%.
Taken in the same sequence, the figures for `CCOc1cc(C(=O)N[C@H](Cc2ccc(-c3cc(Cl)ccc3F)cc2)C[C@@H](COC)C(=O)O)n[nH]1` [Example 2-16, (2S,4S)-5-(5′-Chloro-2′-fluorobiphenyl-4-yl)-4-[(5-ethoxy-1H-pyrazole-3-carbonyl)amino]-2-methoxymethylpentanoic acid] were “≧9.0” and over 10%.
Take `COC[C@H](C[C@@H](Cc1ccc(-c2cccc(Cl)c2)cc1)NC(=O)c1cnn[nH]1)C(=O)O` [Example 3, (2S,4S)-5-(3′-Chlorobiphenyl-4-yl)-2-methoxymethyl-4-[(3H-[1,2,3]triazole-4-carbonyl)amino]pentanoic Acid]: the pKi result at human NEP is reported as “≧9.0”. In series [1], this compound displayed a bioavailability of over 10%.
For the compound `COC[C@H](C[C@@H](Cc1ccc(-c2ccccc2)cc1)NC(=O)c1c[nH]nn1)C(=O)O` [Example 5, (2S,4S)-5-Biphenyl-4-yl-2-methoxymethyl-4-[(1H-[1,2,3]-triazole-4-carbonyl)amino]pentanoic Acid], the pKi result at human NEP was “≧9.0”. In series [1], the bioavailability is over 10%.
In the case of `CCOC(=O)[C@H](N)C[C@@H](Cc1ccc(-c2cc(Cl)ccc2F)cc1)NC(=O)c1coc(=O)[nH]1` [Example 16-32, (2R,4R)-2-Amino-5-(5′-chloro-2′-fluorobiphenyl-4-yl)-4-[(2-oxo-2,3-dihydro-oxazole-4-carbonyl)amino]pentanoic acid ethyl ester], the bioavailability in series [1] is over 10%.
Still for that read-out and setting: the result for `CCOC(=O)[C@@H](C[C@@H](Cc1ccc(-c2cc(Cl)ccc2F)cc1)NC(=O)c1cnn[nH]1)CN1CCOCC1` [Example 69b, (2S,4S)-5-(5′-Chloro-2′-fluorobiphenyl-4-yl)-2-morpholin-4-ylmethyl-4-[(3H-[1,2,3]triazole-4-carbonyl)amino]pentanoic Acid Ethyl Ester] reads over 10%; that for `CCOC(=O)[C@@H](C[C@@H](Cc1ccc(-c2cc(Cl)ccc2F)cc1)NC(=O)c1cnn[nH]1)CN1CCC1` [Example 84a, (2S,4S)-2-Azetidin-1-ylmethyl-5-(5′-chloro-2′-fluorobiphenyl-4-yl)-4-[(3H-[1,2,3]triazole-4-carbonyl)amino]pentanoic Acid Ethyl Ester], over 10%.
`CCOC(=O)[C@@H](C[C@@H](Cc1ccc(-c2cc(Cl)ccc2F)cc1)NC(=O)c1cnn[nH]1)CN1CC(F)C1` [Example 91a, (2S,4S)-5-(5′-Chloro-2′-fluorobiphenyl-4-yl)-2-(3-fluoroazetidin-1-ylmethyl)-4-[(3H-[1,2,3]triazole-4-carbonyl)amino]pentanoic Acid Ethyl Ester] gave a bioavailability in series [1] of over 10%.
Take `COC[C@@H]1CCN1C[C@H](C[C@@H](Cc1ccc(-c2cc(Cl)ccc2F)cc1)NC(=O)c1c[nH]nn1)C(=O)O` [Example 103d, (2S,4S)-5-(5′-Chloro-2′-fluorobiphenyl-4-yl)-2-((S)-2-methoxymethylazetidin-1-ylmethyl)-4-[(3H-[1,2,3]triazole-4-carbonyl)amino]pentanoic Acid]: the Ki at human NEP was at most 1 nM.
Consider `CC(C)(N)[C@H](C[C@@H](Cc1ccc(-c2cc(Cl)ccc2F)cc1)NC(=O)c1cnn[nH]1)C(=O)O` [Example 104, (2S,4S)-2-(1-Amino-1-methylethyl)-5-(5′-chloro-2′-fluorobiphenyl-4-yl)-4-[(3H-[1,2,3]triazole-4-carbonyl)amino]pentanoic Acid], for which the pKi entry at human NEP is “≧9.0”.
Consider `O=C(N[C@H](Cc1ccc(-c2cc(Cl)ccc2F)cc1)C[C@@H](CN1CC(CCO)C1)C(=O)O)c1c[nH]nn1` [Example 105, (2S,4S)-5-(5′-Chloro-2′-fluorobiphenyl-4-yl)-2-[3-(2-hydroxyethyl)azetidin-1-ylmethyl]-4-[(1H-[1,2,3]triazole-4-carbonyl)amino]pentanoic Acid], for which, at human NEP, the inhibition constant (Ki) was at most 1 nM.
Same read-out and setting: the result for `CN(CCO)C[C@H](C[C@@H](Cc1ccc(-c2cc(Cl)ccc2F)cc1)NC(=O)c1c[nH]nn1)C(=O)O` [Example 106, (2S,4S)-5-(5′-Chloro-2′-fluorobiphenyl-4-yl)-2-{[(2-hydroxyethyl)-methylamino]methyl}-4-[(1H-[1,2,3]triazole-4-carbonyl)amino]pentanoic Acid] reads 1.26 to 3.16 nM.

In general, Ki refers to the dissociation constant of the complex between target and ligand, obtained from inhibition or displacement. The bioavailability is dose-corrected exposure relative to a reference, in per cent.
